Assay results as given in ChEMBL document CHEMBL3046588, “Design, synthesis, and in vitro evaluation of cytotoxic activity of new substituted 1,4-benzoquinones and hydroquinones” (2007).

Tests used:
Format in all cases: functional
[1] = Cytotoxicity against Homo sapiens (human) breast cancer cells after 48 hr by SRB assay; settings: Cancer cell lines; for LC50 (concentration giving 50% net cell kill): pooled result: one value given for 9 cell lines, strains, targets or settings
[2] = Cytotoxicity against Homo sapiens (human) prostate cancer cells after 48 hr by SRB assay; settings: Cancer cell lines
[3] = Cytotoxicity against Homo sapiens (human) renal cancer cells after 48 hr by SRB assay; settings: Cancer cell lines
[4] = Cytotoxicity against Homo sapiens (human) ovarian cancer cells after 48 hr by SRB assay; settings: Cancer cell lines
[5] = Cytotoxicity against Homo sapiens (human) CNS cancer cells after 48 hr by SRB assay; settings: Cancer cell lines
[6] = Cytotoxicity against Homo sapiens (human) melanoma cellsafter 48 hr by SRB assay; settings: Melanoma cell
[7] = Cytotoxicity against Homo sapiens (human) colon cancer cells after 48 hr by SRB assay; settings: Cancer cell lines
[8] = Cytotoxicity against Homo sapiens (human) leukemia cells after 48 hr by SRB assay; settings: Leukemia cell
[9] = Cytotoxicity against Homo sapiens (human) non-small cell lung cancer cells after 48 hr by SRB assay; settings: Cancer cell lines
SF-268 = assay: Cytotoxicity against Homo sapiens (human) SF268 cells assessed as cellular growth after 48 hr by Alamar blue assay; parameters: concentration or dose not given beside the values
MCF7 = assay: Cytotoxicity against Homo sapiens (human) MCF7 cells assessed as cellular growth after 48 hr by Alamar blue assay; parameters: concentration or dose not given beside the values
NCI-H460 = assay: Cytotoxicity against Homo sapiens (human) NCI-H460 cells assessed as cellular growth after 48 hr by Alamar blue assay; parameters: concentration or dose not given beside the values

CC1=NN(c2ccc(Br)cc2)C(=O)C1CC(=O)c1cc(O)ccc1O (configuration not stated)
GI50 [1]: 19.1 µM | TGI [1]: 38.2 µM | LC50 (concentration giving 50% net cell kill) [1]: 49.6 µM | GI50 [2]: 42.2 µM | TGI [2]: 50 µM | GI50 [3]: 39.8 µM | TGI [3]: 46.1 µM | GI50 [4]: 34.2 µM | TGI [4]: 50 µM | GI50 [5]: 25.8 µM | TGI [5]: 46 µM | GI50 [6]: 28 µM | TGI [6]: 42.6 µM | GI50 [7]: 36 µM | TGI [7]: 45.5 µM | GI50 [8]: 7.75 µM | TGI [8]: 35.8 µM | GI50 [9]: 38.2 µM | TGI [9]: 48.6 µM | Activity (SF-268): <32% | Activity (MCF7): <32% | Activity (NCI-H460): <32%

COc1ccc(OC)c(-c2cc(-c3ccc(Cl)cc3)nn2-c2ccc(S(N)(=O)=O)cc2)c1
GI50 [1]: 11.5 µM | TGI [1]: 34 µM | LC50 (concentration giving 50% net cell kill) [1]: 74.7 µM | GI50 [2]: 7.86 µM | TGI [2]: 20.8 µM | GI50 [3]: 13.5 µM | TGI [3]: 39.5 µM | GI50 [4]: 16.9 µM | TGI [4]: 50.8 µM | GI50 [5]: 16.2 µM | TGI [5]: 37.2 µM | GI50 [6]: 12.8 µM | TGI [6]: 36.7 µM | GI50 [7]: 0.95 µM | TGI [7]: 38.4 µM | GI50 [8]: 4.44 µM | TGI [8]: 52.1 µM | GI50 [9]: 10.9 µM | TGI [9]: 44.3 µM | Activity (SF-268): <32% | Activity (MCF7): <32% | Activity (NCI-H460): <32%

Cc1ccc(-c2cc(C3=CC(=O)C=CC3=O)n(-c3ccc(S(N)(=O)=O)cc3)n2)cc1
GI50 [1]: 51.5 µM | TGI [1]: 95.5 µM | LC50 (concentration giving 50% net cell kill) [1]: 99.2 µM | GI50 [2]: 36.5 µM | TGI [2]: 100 µM | GI50 [3]: 55.6 µM | TGI [3]: 86.8 µM | GI50 [4]: 67.4 µM | TGI [4]: 100 µM | GI50 [5]: 65.3 µM | TGI [5]: 100 µM | GI50 [6]: 69.4 µM | TGI [6]: 97.3 µM | GI50 [7]: 42.4 µM | TGI [7]: 88.8 µM | GI50 [8]: 37.4 µM | TGI [8]: 94 µM | GI50 [9]: 53.5 µM | TGI [9]: 100 µM | Activity (SF-268): <32% | Activity (MCF7): <32% | Activity (NCI-H460): <32%

COc1ccc(OC)c(-c2cc(-c3ccc(Cl)cc3)nn2-c2ccccc2)c1
GI50 [1]: 17.7 µM | TGI [1]: 78.6 µM | LC50 (concentration giving 50% net cell kill) [1]: 99.8 µM | GI50 [2]: 60.5 µM | TGI [2]: 100 µM | GI50 [3]: 34.9 µM | TGI [3]: 77.4 µM | GI50 [4]: 49 µM | TGI [4]: 85.2 µM | GI50 [5]: 29.2 µM | TGI [5]: 84.3 µM | GI50 [6]: 34.9 µM | TGI [6]: 70 µM | GI50 [7]: 25.2 µM | TGI [7]: 82.8 µM | GI50 [8]: 11.1 µM | TGI [8]: 78.2 µM | GI50 [9]: 40.6 µM | TGI [9]: 100 µM | Activity (SF-268): <32% | Activity (MCF7): <32% | Activity (NCI-H460): <32%

CC(=O)NS(=O)(=O)c1ccc(-n2nc(-c3ccc(Cl)cc3)cc2-c2cc(O)ccc2O)cc1
GI50 [1]: 55.3 µM | TGI [1]: 82.1 µM | LC50 (concentration giving 50% net cell kill) [1]: 91.2 µM | GI50 [2]: 17.7 µM | TGI [2]: 38.8 µM | GI50 [3]: 23.5 µM | TGI [3]: 59.8 µM | GI50 [4]: 44.6 µM | TGI [4]: 81.2 µM | GI50 [5]: 38.5 µM | TGI [5]: 93.9 µM | GI50 [6]: 36.2 µM | TGI [6]: 60.1 µM | GI50 [7]: 37.6 µM | TGI [7]: 66.5 µM | GI50 [8]: 37.4 µM | TGI [8]: 92.6 µM | GI50 [9]: 36.2 µM | TGI [9]: 73.7 µM | Activity (SF-268): <32% | Activity (MCF7): <32% | Activity (NCI-H460): <32%

NS(=O)(=O)c1ccc(-n2nc(-c3ccc(Cl)cc3)cc2C2=CC(=O)C=CC2=O)cc1
GI50 [1]: 21.9 µM | TGI [1]: 62.6 µM | LC50 (concentration giving 50% net cell kill) [1]: 92.3 µM | GI50 [2]: 21.6 µM | TGI [2]: 71.9 µM | GI50 [3]: 23.1 µM | TGI [3]: 50.2 µM | GI50 [4]: 26.5 µM | TGI [4]: 65.7 µM | GI50 [5]: 23.7 µM | TGI [5]: 53 µM | GI50 [6]: 26.7 µM | TGI [6]: 52.7 µM | GI50 [7]: 17.6 µM | TGI [7]: 37.4 µM | GI50 [8]: 31.8 µM | TGI [8]: 84.6 µM | GI50 [9]: 23.9 µM | TGI [9]: 71.1 µM | Activity (SF-268): <32% | Activity (MCF7): <32% | Activity (NCI-H460): <32%
